Assay results as given in patent US20250388574A1, “HETEROCYCLIC COMPOUNDS AS TRIGGERING RECEPTOR EXPRESSED ON MYELOID CELLS 2 AGONISTS AND METHODS OF USE” (AMGEN INC., priority 2020, published 2025).

Experiments:
hTREM2 [1] = biological target: T1, hTREM2 (Homo sapiens, UniProt Q9NZC2); assay: Phospho-Syk AlphaLisa assay in HEK293T-hTREM2 cells expressing human TREM2 and DAP12 (Example A2); format: cell-based; design: expressed in transfected cells; host or cells: HEK293T-hTREM2 cells; conditions: HEK293 cells, Syk phosphorylation, Examples 276-283
T1 sequence (Q9NZC2 19-230): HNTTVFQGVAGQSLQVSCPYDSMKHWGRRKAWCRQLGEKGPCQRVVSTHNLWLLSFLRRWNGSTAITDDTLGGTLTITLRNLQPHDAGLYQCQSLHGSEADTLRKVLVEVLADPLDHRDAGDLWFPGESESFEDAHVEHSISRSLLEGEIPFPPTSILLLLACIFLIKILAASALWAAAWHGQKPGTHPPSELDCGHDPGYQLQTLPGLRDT
T1 sequence (O43914 22-113 partner): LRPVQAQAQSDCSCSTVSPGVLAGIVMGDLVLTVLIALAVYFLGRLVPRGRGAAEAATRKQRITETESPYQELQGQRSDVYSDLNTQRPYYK
Experimental: Measurement of TREM2 agonist potency was done using a HEK cell line expressing human TREM2 and DAP12 (HEK293T-hTREM2 cells). Binding of small molecules to, and activation of, TREM2 increases the phosphorylation of Syk. The resultant levels of Syk phosphorylation were measured using a commercial AlphaLisa reagent kit. To perform the assay, HEK-hTREM2 cells were plated at 14,000 cells per well in a 384 well plate, in 25 μL of complete growth media and incubated at 37° C., 5% CO2 for 20-24 hours. Prior to the assay, test compounds were diluted in the 384 well plates in assay buffer and allowed to equilibrate for 30 minutes. Growth media was removed from cell plates by inversion on blotting paper, and 25 μL of test compounds in assay buffer was added to cells. Cells were incubated for 45 minutes at room temperature. After 45 minutes, assay buffer was removed and 10 μL of lysis buffer was added. Plates were shaken for 20 minutes at 350 RPM at room temperature. After complete lysis, AlphaLisa reagents were added to the lysate, and fluorescence intensity was measured using a Perkin Elmer Envision plate reader. Intensities were used to generate a standard curve, and % activation was calculated. Curve fitting was performed using Prism v9 software, log(agonist) vs response—variable slope (four parameters), and EC50s were calculated from the curve fit.
The results presented in Table 11 have been generated with the in vitro assay described above for Examples 276-283. This assay may be used to test any of the compounds described herein to assess and characterize a compound's ability to act as an agonist of TREM2.

hTREM2 [2] = biological target: T1, hTREM2; assay: Phospho-Syk AlphaScreen/AlphaLISA assay in TREM2 and DAP12 overexpressing HEK293 cells (Example A1); format: cell-based; design: expressed in transfected cells; conditions: HEK293 cells; for EC50: read-out: hTREM2 EC50
Outline: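 Single-cell-cloned HEK293 stably overexpressing TREM2 and DAP12, plated 20,000 cells/well for 20 h, then exposed to compounds (1% DMSO) 45 min at room temperature. Lysates probed for phospho-Syk by AlphaLISA sandwich (anti-pSyk, biotinylated anti-Syk); signal normalized to percent of control (100 nM anti-TREM2 antibody vs isotype) and fitted by 4-parameter logistic.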

Compound	EC50 (hTREM2 [1])	Emax (hTREM2 [2])	EC50 (hTREM2 [2])
Cc1cc([C@H]2C[C@@H](c3cc4nc(C)n(C)c(=O)c4c(-c4ccc(F)cc4F)n3)CCO2)ccn1 (racemic) [Example 278, 5-(2,4-difluorophenyl)-2,3-dimethyl-7-(2-(2-methylpyridin-4-yl)tetrahydro-2H-pyran-4-yl)pyrido[4,3-d]pyrimidin-4(3H)-one]	50 to 500 nM	–	–
COc1cc(C2CN(c3cc4nc(C)n(C)c(=O)c4c(C45CC(C(F)(F)F)(C4)C5)n3)CCO2)ccn1 (centres unmarked) [Example 283, 7-(2-(2-methoxypyridin-4-yl)morpholino)-2,3-dimethyl-5-(3-(trifluoromethyl)bicyclo[1.1.1]pentan-1-yl)pyrido[4,3-d]pyrimidin-4(3H)-one]	50 to 500 nM	–	–
COc1cc(C2CN(c3cc4nc(C)n(C)c(=O)c4c(-c4ccc(F)cc4F)n3)CCO2)ccn1 (centres unmarked) [Example 279, 5-(2,4-difluorophenyl)-7-(2-(2-methoxypyridin-4-yl)morpholino)-2,3-dimethylpyrido[4,3-d]pyrimidin-4(3H)-one]	< 50 nM	–	–
Cc1cc([C@H]2C[C@@H](c3cc4nc(C)n(C)c(=O)c4c(-c4ccc(C(F)(F)F)nc4)n3)CCO2)ccn1 [Example 277, 2,3-dimethyl-7-(2-(2-methylpyridin-4-yl)tetrahydro-2H-pyran-4-yl)-5-(6-(trifluoromethyl)pyridin-3-yl)pyrido[4,3-d]pyrimidin-4(3H)-one]	50 to 500 nM	–	–
Cc1nc2cc(N3Cc4cccnc4C3)nc(-c3ccc(Cl)cc3F)c2c(=O)n1C [Example 247, 5-(4-chloro-2-fluorophenyl)-7-(5,7-dihydro-6H-pyrrolo[3,4-b]pyridin-6-yl)-2,3-dimethylpyrido [4,3-d]pyrimidin-4(3H)-one]	–	++ (Emax>100 and ≤200)	3000 to 100000 nM
Cc1nc2cc(N3C[C@H](C)O[C@@H](c4ccsc4)C3)nc(-c3ccc(Cl)cc3F)c2c(=O)n1C (single isomer, unassigned) [Example 71]	–	++++ (Emax>300)	50 to 500 nM
CCCn1c(C)nc2cc(N3CCO[C@H](CC)C3)nc(-c3ccc(Cl)cc3F)c2c1=O [Example 187, (R)-5-(4-chloro-2-fluorophenyl)-7-(2-ethylmorpholino)-2-methyl-3-propylpyrido[4,3-d]pyrimidin-4(3H)-one]	–	++++ (Emax>300)	500 to 3000 nM

Next, values leading:

EC50 (hTREM2 [1])	Emax (hTREM2 [2])	EC50 (hTREM2 [2])	Compound
< 50 nM	–	–	Cc1cc(C2CN(c3cc4nc(C)n(C)c(=O)c4c(-c4ccc(C(F)(F)F)nc4)n3)CCO2)ccn1 (centres unmarked) [Example 280, 2,3-dimethyl-7-(2-(2-methylpyridin-4-yl)morpholino)-5-(6-(trifluoromethyl)pyridin-3-yl)pyrido[4,3-d]pyrimidin-4(3H)-one]
< 50 nM	–	–	Cc1cc([C@H]2C[C@@H](c3cc4nc(C)n(C)c(=O)c4c(C45CC(C(F)(F)F)(C4)C5)n3)CCO2)ccn1 (racemic) [Example 281, 2,3-dimethyl-7-(2-(2-methylpyridin-4-yl)tetrahydro-2H-pyran-4-yl)-5-(3-(trifluoromethyl)bicyclo[1.1.1]pentan-1-yl)pyrido[4,3-d]pyrimidin-4(3H)-one]
< 50 nM	–	–	Cc1cc(C2CN(c3cc4nc(C)n(C)c(=O)c4c(-c4ccc(F)cc4F)n3)CCO2)ccn1 (centres unmarked) [Example 276, 5-(2,4-difluorophenyl)-2,3-dimethyl-7-(2-(2-methylpyridin-4-yl)morpholino)pyrido[4,3-d]pyrimidin-4(3H)-one]
< 50 nM	–	–	Cc1cc(C2CN(c3cc4nc(C)n(C)c(=O)c4c(C45CC(C(F)(F)F)(C4)C5)n3)CCO2)ccn1 (centres unmarked) [Example 282, 2,3-dimethyl-7-(2-(2-methylpyridin-4-yl)morpholino)-5-(3-(trifluoromethyl)bicyclo[1.1.1]pentan-1-yl)pyrido[4,3-d]pyrimidin-4(3H)-one]
